Measured values taken from patent US7256286B2, “Bryostatin analogues, synthetic methods and uses” (The Board of Trustees of the Leland Stanford Junior …, priority 1999, dated 2007).

What was measured:
CCRF-CEM = assay: NCI human cancer cell line growth inhibition: CCRF-CEM; format: cell-based; conditions: Leukemia
HL-60(TB) = assay: cells; format: cell-based, human
K-562 = assay: NCI human cancer cell line growth inhibition: K-562; format: cell-based; conditions: K-562, Leukemia
MOLT-4 = assay: NCI human cancer cell line growth inhibition: MOLT-4; format: cell-based; conditions: MOLT-4, Leukemia
RPMI-8226 = assay: NCI human cancer cell line growth inhibition: RPMI-8226; format: cell-based; conditions: RPMI-8226, Leukemia
SR = assay: NCI human cancer cell line growth inhibition: SR; format: cell-based; conditions: Leukemia
A549/ATCC = assay: NCI human cancer cell line growth inhibition: A549/ATCC; format: cell-based; conditions: NSC Lung
EKVX = assay: NCI human cancer cell line growth inhibition: EKVX; format: cell-based; conditions: NSC Lung
HOP-62 = assay: NCI human cancer cell line growth inhibition: HOP-62; format: cell-based; conditions: HOP-62, NSC Lung
HOP-92 = assay: NCI human cancer cell line growth inhibition: HOP-92; format: cell-based; conditions: HOP-92, NSC Lung
NCI-H226 = format: cell-based, human; conditions: NCI-H226, NSC Lung
NCI-H23 = format: cell-based, human; conditions: NCI-H23, NSC Lung
NCI-H460 = format: cell-based, human; conditions: NCI-H460, NSC Lung
NCI-H522 = format: cell-based, human; conditions: NCI-H522, NSC Lung
COLO 205 = assay: NCI human cancer cell line growth inhibition: COLO 205; format: cell-based; conditions: COLO 205, Colon
HCC-2998 = assay: NCI human cancer cell line growth inhibition: HCC-2998; format: cell-based; conditions: HCC-2998, Colon
HCT-116 = assay: NCI human cancer cell line growth inhibition: HCT-116; format: cell-based; conditions: HCT-116, Colon
HCT-15 = assay: NCI human cancer cell line growth inhibition: HCT-15; format: cell-based; conditions: HCT-15, Colon
HT29 = assay: NCI human cancer cell line growth inhibition: HT29; format: cell-based; conditions: HT29, Colon
KM12 = assay: NCI human cancer cell line growth inhibition: KM12; format: cell-based; conditions: KM12, Colon
SW-620 = assay: NCI human cancer cell line growth inhibition: SW-620; format: cell-based; conditions: SW-620, Colon
SF-268 = assay: NCI human cancer cell line growth inhibition: SF-268; format: cell-based; conditions: SF-268, CNS
SF-295 = assay: NCI human cancer cell line growth inhibition: SF-295; format: cell-based; conditions: SF-295, CNS
SF-539 = assay: NCI human cancer cell line growth inhibition: SF-539; format: cell-based; conditions: SF-539, CNS
SNB-19 = assay: NCI human cancer cell line growth inhibition: SNB-19; format: cell-based; conditions: SNB-19, CNS
SNB-75 = assay: NCI human cancer cell line growth inhibition: SNB-75; format: cell-based; conditions: SNB-75, CNS
U251 = assay: NCI human cancer cell line growth inhibition: U251; format: cell-based; conditions: U251, CNS
PC-3 = assay: NCI human cancer cell line growth inhibition: PC-3; format: cell-based; conditions: PC-3, Prostate
DU-145 = assay: NCI human cancer cell line growth inhibition: DU-145; format: cell-based; conditions: DU-145, Prostate
LOX IMVI = assay: NCI human cancer cell line growth inhibition: LOX IMVI; format: cell-based; conditions: Melanoma
MALME-3M = assay: NCI human cancer cell line growth inhibition: MALME-3M; format: cell-based; conditions: Melanoma
MI4 = assay: NCI human cancer cell line growth inhibition: MI4; format: cell-based; conditions: MI4, Melanoma
SK-MEL-2 = assay: NCI human cancer cell line growth inhibition: SK-MEL-2; format: cell-based; conditions: SK-MEL-2, Melanoma
SK-MEL-28 = assay: NCI human cancer cell line growth inhibition: SK-MEL-28; format: cell-based; conditions: SK-MEL-28, Melanoma
SK-MEL-5 = assay: NCI human cancer cell line growth inhibition: SK-MEL-5; format: cell-based; conditions: SK-MEL-5, Melanoma
UACC-257 = assay: NCI human cancer cell line growth inhibition: UACC-257; format: cell-based; conditions: UACC-257, Melanoma
UACC-62 = assay: NCI human cancer cell line growth inhibition: UACC-62; format: cell-based; conditions: UACC-62, Melanoma
IGROVI = assay: NCI human cancer cell line growth inhibition: IGROVI; format: cell-based; conditions: Ovarian
OVCAR-3 = assay: NCI human cancer cell line growth inhibition: OVCAR-3; format: cell-based; conditions: OVCAR-3, Ovarian
OVCAR-4 = assay: NCI human cancer cell line growth inhibition: OVCAR-4; format: cell-based; conditions: OVCAR-4, Ovarian
OVCAR-5 = assay: NCI human cancer cell line growth inhibition: OVCAR-5; format: cell-based; conditions: OVCAR-5, Ovarian
OVCAR-8 = assay: NCI human cancer cell line growth inhibition: OVCAR-8; format: cell-based; conditions: OVCAR-8, Ovarian
SK-OV-3 = assay: NCI human cancer cell line growth inhibition: SK-OV-3; format: cell-based; conditions: SK-OV-3, Ovarian
786-0 = assay: NCI human cancer cell line growth inhibition: 786-0; format: cell-based; conditions: 786-0, Renal
A498 = assay: NCI human cancer cell line growth inhibition: A498; format: cell-based; conditions: A498, Renal
ACHN = assay: NCI human cancer cell line growth inhibition: ACHN; format: cell-based; conditions: Renal
CAKI-1 = assay: NCI human cancer cell line growth inhibition: CAKI-1; format: cell-based; conditions: CAKI-1, Renal
RXF-393 = assay: NCI human cancer cell line growth inhibition: RXF-393; format: cell-based; conditions: RXF-393, Renal
SN12C = assay: NCI human cancer cell line growth inhibition: SN12C; format: cell-based; conditions: Renal
TK-10 = assay: NCI human cancer cell line growth inhibition: TK-10; format: cell-based; conditions: TK-10, Renal
UO-31 = assay: NCI human cancer cell line growth inhibition: UO-31; format: cell-based; conditions: UO-31, Renal
MCF7 = assay: NCI human cancer cell line growth inhibition: MCF7; format: cell-based; conditions: MCF7, Breast
NCI/ADR-RES = format: cell-based, human; conditions: Breast
MDA-MB-231/ATCC = assay: NCI human cancer cell line growth inhibition: MDA-MB-231/ATCC; format: cell-based; conditions: Breast
MDA-MB-435 = assay: NCI human cancer cell line growth inhibition: MDA-MB-435; format: cell-based; conditions: MDA-MB-435, Breast
MDA-N = assay: NCI human cancer cell line growth inhibition: MDA-N; format: cell-based; conditions: Breast
BT-549 = assay: NCI human cancer cell line growth inhibition: BT-549; format: cell-based; conditions: BT-549, Breast
T-47D = assay: NCI human cancer cell line growth inhibition: T-47D; format: cell-based; conditions: Breast
HS 578T = assay: NCI human cancer cell line growth inhibition: HS 578T; format: cell-based; conditions: Breast

CCC/C=C/C=C/C(=O)O[C@H]1/C(=C/C(=O)OC)C[C@H]2C[C@H]([C@@H](C)O)OC(=O)C[C@H](O)C[C@@H]3C[C@H](OC(C)=O)C(C)(C)[C@](O)(C[C@@H]4C/C(=C/C(=O)OC)C[C@H](/C=C/C(C)(C)[C@]1(O)O2)O4)O3 [Bryo-1, reference compound]
Growth inhibition (GI50) (CCRF-CEM): −5.30 log of molar concentration
Growth inhibition (GI50) (HL-60(TB)): −5.70 log of molar concentration
Growth inhibition (GI50) (K-562): −5.40 log of molar concentration
Growth inhibition (GI50) (MOLT-4): −5.50 log of molar concentration
Growth inhibition (GI50) (RPMI-8226): >−5 log of molar concentration
Growth inhibition (GI50) (SR): >−5 log of molar concentration
Growth inhibition (GI50) (A549/ATCC): −5.20 log of molar concentration
Growth inhibition (GI50) (EKVX): −5.30 log of molar concentration
Growth inhibition (GI50) (HOP-62): >−5 log of molar concentration
Growth inhibition (GI50) (HOP-92): −5.30 log of molar concentration
Growth inhibition (GI50) (NCI-H226): >−5 log of molar concentration
Growth inhibition (GI50) (NCI-H23): >−5 log of molar concentration
Growth inhibition (GI50) (NCI-H460): −5.60 log of molar concentration
Growth inhibition (GI50) (NCI-H522): >−5 log of molar concentration
Growth inhibition (GI50) (COLO 205): −5.40 log of molar concentration
Growth inhibition (GI50) (HCC-2998): −5.30 log of molar concentration
Growth inhibition (GI50) (HCT-116): −5.30 log of molar concentration
Growth inhibition (GI50) (HCT-15): >−5 log of molar concentration
Growth inhibition (GI50) (HT29): −5.30 log of molar concentration
Growth inhibition (GI50) (KM12): −5.20 log of molar concentration
Growth inhibition (GI50) (SW-620): −5.50 log of molar concentration
Growth inhibition (GI50) (SF-268): −5.10 log of molar concentration
Growth inhibition (GI50) (SF-295): −5.20 log of molar concentration
Growth inhibition (GI50) (SF-539): >−5 log of molar concentration
Growth inhibition (GI50) (SNB-19): >−5 log of molar concentration
Growth inhibition (GI50) (SNB-75): −5.50 log of molar concentration
Growth inhibition (GI50) (U251): −5.10 log of molar concentration
Growth inhibition (GI50) (PC-3): −5.30 log of molar concentration
Growth inhibition (GI50) (DU-145): >−5 log of molar concentration
Growth inhibition (GI50) (LOX IMVI): −5.10 log of molar concentration
Growth inhibition (GI50) (MALME-3M): −5.20 log of molar concentration
Growth inhibition (GI50) (MI4): >−5 log of molar concentration
Growth inhibition (GI50) (SK-MEL-2): −5.20 log of molar concentration
Growth inhibition (GI50) (SK-MEL-28): −5.10 log of molar concentration
Growth inhibition (GI50) (SK-MEL-5): −5.70 log of molar concentration
Growth inhibition (GI50) (UACC-257): −5.10 log of molar concentration
Growth inhibition (GI50) (UACC-62): −5.30 log of molar concentration
Growth inhibition (GI50) (IGROVI): −5.30 log of molar concentration
Growth inhibition (GI50) (OVCAR-3): −5.10 log of molar concentration
Growth inhibition (GI50) (OVCAR-4): −5.50 log of molar concentration
Growth inhibition (GI50) (OVCAR-5): >−5 log of molar concentration
Growth inhibition (GI50) (OVCAR-8): −5.10 log of molar concentration
Growth inhibition (GI50) (SK-OV-3): −5.10 log of molar concentration
Growth inhibition (GI50) (786-0): −5.20 log of molar concentration
Growth inhibition (GI50) (A498): >−5 log of molar concentration
Growth inhibition (GI50) (ACHN): −5.50 log of molar concentration
Growth inhibition (GI50) (CAKI-1): −5.40 log of molar concentration
Growth inhibition (GI50) (RXF-393): −5.30 log of molar concentration
Growth inhibition (GI50) (SN12C): −5.10 log of molar concentration
Growth inhibition (GI50) (TK-10): >−5 log of molar concentration
Growth inhibition (GI50) (UO-31): −5.60 log of molar concentration
Growth inhibition (GI50) (MCF7): −5.20 log of molar concentration
Growth inhibition (GI50) (NCI/ADR-RES): >−5 log of molar concentration
Growth inhibition (GI50) (MDA-MB-231/ATCC): −5.20 log of molar concentration
Growth inhibition (GI50) (MDA-MB-435): −5.10 log of molar concentration
Growth inhibition (GI50) (MDA-N): −5.10 log of molar concentration
Growth inhibition (GI50) (BT-549): −5.10 log of molar concentration
Growth inhibition (GI50) (T-47D): −5.20 log of molar concentration
Growth inhibition (GI50) (HS 578T): −5.2 log of molar concentration
